A value given as a limit tells only on which side of the number the result lay.

The target in data set [1] is Protein farnesyltransferase (Mus musculus, UniProt Q61239+Q8K2I1). Kind of data set: Reduced farnesylation of H-ras transformed NIH3T3 cells. The class given is functional, cell-based.
The target of data set [2] is T1, Geranylgeranyl transferase type I (Bos taurus, UniProt P29702+Q5EAD5). The data set is described as follows: inhibitory concentration needed to reduce the bovine GGTase-catalyzed incorporation of […] into a biotin-linked K-ras (B) decapeptide. The data set is classed as protein-complex assay.
Data set [3] can be described thus: Inhibition of [3H]FPP incorporation into biotin-linked K-ras decapeptide (CVIM) by bovine farnesyltransferase. On the set-up: species or system Bos taurus.
Data set [4] concerns the target T1, Geranylgeranyl transferase type I. The data set is described as follows: Inhibition of [3H]FPP incorporation into biotin-linked K-ras decapeptide (CVLL) by bovine geranylgeranyltransferase. The data set is classed as protein-complex assay.
A short description of data set [5]: Inhibition of [3H]-FPP incorporation into biotin-linked K-ras decapeptide (CVIM) by bovine farnesyltransferase. On the set-up: species or system Bos taurus.
Data set [6] in a line: Plasma clearance was determined. The class given is ADME, organism-based, Canis lupus familiaris. Particulars: dog, in vivo.
Data set [7] can be described thus: Oral bioavailability in dog. The data set is classed as ADME, organism-based, Canis lupus familiaris. To be noted: in vivo.
Data set [8] in a line: Half life in dog. Particulars: in vivo. The data set is classed as ADME, Canis lupus familiaris.

Broadly, the EC50 is the midpoint of the concentration-response curve. The term IC50 denotes the concentration needed to halve the response being measured. Low readings indicate greater potency in that assay, high ones weaker potency in that assay. In data set [1], `Cn1cncc1C(OCc1c(-c2cccc(Cl)c2)cc(C#N)c(=O)n1C)c1ccc(C#N)cc1` (configuration not stated) showed an EC50 of 0.5 nM. Further, the results for the IC50 in data set [2] and in data set [3] were 2.7 nM and 0.44 nM, respectively.

Turning to `Cn1cncc1C(OCc1ccc(C#N)cc1-c1cccc(Cl)c1)c1ccc(C#N)cc1` (configuration not stated), in data set [1], a half-maximal effect (EC50) was put at 5.2 nM. Also, the IC50 in data set [2] amounted to 1.3 nM; in data set [3], 0.87 nM.

As for `Cn1cncc1C(OCc1c(-c2cccc(C(F)(F)F)c2)cc(C#N)n(C)c1=O)c1ccc(C#N)cc1` (configuration not stated), the IC50 in data set [2] is 3600 nM; in data set [3] it was 7.5 nM.

As for `Cn1cncc1C(OCc1cn(Cc2cccc(F)c2)c(=O)cc1-c1cccc(Cl)c1)c1ccc(C#N)cc1` (configuration not stated), in data set [1], the EC50 worked out at 15 nM. Besides, the IC50 amounted to 2000 nM in data set [2] and 2.1 nM in data set [3].

In the case of `Cn1cncc1C(OCc1cn(C)c(=O)cc1-c1cccc(Cl)c1)c1ccc(C#N)cc1` (configuration not stated), the IC50 in data set [2] was above 10000 nM; in data set [3], 12 nM.

In data set [2], `Cn1cncc1C(OCc1c[nH]c(=O)cc1-c1cccc(Cl)c1)c1ccc(C#N)cc1` (configuration not stated) came in with an IC50 of 6200 nM.

Turning to `Cn1cncc1C(OCc1cn(Cc2cccnc2Br)c(=O)cc1-c1cccc(Cl)c1)c1ccc(C#N)cc1` (configuration not stated), the IC50 worked out at 6600 nM in data set [2] and 3 nM in data set [3].

For `Cn1cncc1C(OCc1c(-c2cccc(Cl)c2)cc(C#N)n(C)c1=O)c1ccc(C#N)cc1` (configuration not stated), in data set [1], the midpoint of the response, the EC50, lay at 11.4 nM. For the same compound, the results for the IC50 in data set [2] and in data set [3] were above 10000 nM and 1.2 nM, respectively.

In the case of `Cn1cncc1C(OCc1cn(Cc2ccc(C#N)cc2)c(=O)cc1-c1cccc(Cl)c1)c1ccc(C#N)cc1` (configuration not stated), the concentration for half-maximal inhibition (IC50) was above 10000 nM in data set [4] and 5 nM in data set [5].

Turning to `Cn1cncc1C(OCc1cn(Cc2cccc(Cl)c2)c(=O)cc1-c1cccc(Cl)c1)c1ccc(C#N)cc1` (configuration not stated), in data set [1], the midpoint of the response, the EC50, lay at 10 nM. Further, the IC50 turned out to be 1200 nM in data set [2] and 2.1 nM in data set [3].

Usually bioavailability stands for dose-corrected exposure relative to a reference, in per cent. Lower therefore signals little systemic uptake. The half-life is the time needed for the level to fall by half in the phase considered. Low values mean rapid decline, high ones slow decline. Regarding `Cn1cncc1C(OCc1cn(Cc2cccc(C#N)c2)c(=O)cc1-c1cccc(Cl)c1)c1ccc(C#N)cc1` (configuration not stated), the Plasma clearance in data set [6] came to 8.83 mL/min/kg. This compound gave an EC50 in data set [1] of 9 nM. Besides, the half-inhibitory concentration (IC50) in data set [2] stood at 1900 nM; in data set [3], 1.3 nM. In data set [7], this compound gave a bioavailability of 47%. In data set [8], this compound gave a half-life of 1.4 h.

As for `Cn1cncc1C(OCc1cn(CC#N)c(=O)cc1-c1cccc(Cl)c1)c1ccc(C#N)cc1` (configuration not stated), the results for the IC50 in data set [2] and in data set [3] were above 10000 nM and 19 nM, respectively.

As for `Cn1cncc1C(OCc1c(-c2cc(Cl)cc(Cl)c2)cc(C#N)n(C)c1=O)c1ccc(C#N)cc1` (configuration not stated), the EC50 in data set [1] came out at 15 nM. For the same compound, the IC50 in data set [2] amounted to 9400 nM; in data set [3], 1.1 nM.

With `Cn1cncc1C(OCc1cn(Cc2ccccc2C#N)c(=O)cc1-c1cccc(Cl)c1)c1ccc(C#N)cc1` (configuration not stated), the IC50 in data set [2] was found to be 7700 nM; in data set [3] it was 2.3 nM.
